Description: The term “water insoluble pharmaceutical” means a pharmaceutical active ingredient that is insoluble or nearly insoluble in water with a dose number greater than 1. The dose number is defined as follows:
Dose number=theoretical dose in mg/water solubility×250 ml.
For example, if the theoretical dose of the drug is 20 mg per dose. […] Another example of a water insoluble pharmaceutical includes the compound of Formula I

CC[C@H](C)C(=O)O[C@H]1C[C@@H](C)C=C2C=C[C@H](C)[C@H](CC[C@@H]3C[C@@H](O)CC(=O)O3)[C@H]21 [lovastatin]
dose number (theoretical dose in mg/water solubility×250 ml): > 8

Source: patent US20090111997A1, “Method of Generating Amorphous Solid for Water-Insoluble Pharmaceuticals” (priority 2005, published 2009)
